Assays:
[1] = 20° C.; cited from earlier work
[2] = type: physicochemical
Excerpt: Thus the long term stability of PNT with triacetin (or other oily vehicles) is highly unexpected. […] After one month in accelerated stability the components of the composition appeared to degrade rapidly with a resulting colour change from an off-white to a dark yellow with dark brown sludge forming. The degradation components appeared to include a gas, resulting in the container swelling from the resultant pressure. Accordingly, the formulations described in CN 1517090 are not known to be storage stable.

[3] = cited from earlier work

CC(=O)OCC(COC(C)=O)OC(C)=O [Triacetin]
viscosity [1]: approximately 23 mPas

CC1(C)S[C@@H]2[C@H](NC(=O)Cc3ccccc3)C(=O)N2[C@H]1C(=O)O [benzylpenicillin]
chemical stability on storage in oily vehicles [2]: chemically unstable

CCN(CC)CCOC(=O)[C@@H]1N2C(=O)[C@@H](NC(=O)Cc3ccccc3)[C@H]2SC1(C)C.I [penethamate hydroiodide]
time to peak serum levels (measured as dissociated penicillin G) ([3]; after injection (Friton 2003)): 3.76 h | share of the active drug present in its hydrolysed form (benzylpenicillin) at equilibrium ([3]; blood pH (7.2), after intramuscular administration): 91.8%

CC1(C)S[C@@H]2[C@H](NC(=O)Cc3ccccc3)C(=O)N2[C@H]1C(=O)O.CCN(CC)CCOC(=O)c1ccc(N)cc1 [procaine penicillin]
chemical stability on storage in oily vehicles [2]: chemically unstable | chemical stability when substituted for penethamate in the preferred formulation [2]: chemically unstable
